Results: patent US20240327756A1, “METAL COMPLEXES, AND D[…] CONTAINING SAME” (HENKEL AG & CO. KGAA, priority 2021, published 2024)

Molecular target: bovine serum albumin (BSA) (Bos taurus, UniProt P02769)
Conditions: BSA 0.02 mM, complex 2 mM, 60° C., pH 9, 24 h incubation; reference without complex = 1.0
Description: The hydrolysis of protein dirt was investigated using degradation of bovine serum albumin (BSA). […] The incubated material was then examined with the known method of SDS-PAGE with regard to the intensity of the band to be assigned to BSA. BSA incubated under the same conditions without the addition of complexes served as reference. The intensity values given in the following table are relative values based on the intensity of the band of the reference at t=24 h.

Chain of bovine serum albumin (BSA) (P02769 25-607): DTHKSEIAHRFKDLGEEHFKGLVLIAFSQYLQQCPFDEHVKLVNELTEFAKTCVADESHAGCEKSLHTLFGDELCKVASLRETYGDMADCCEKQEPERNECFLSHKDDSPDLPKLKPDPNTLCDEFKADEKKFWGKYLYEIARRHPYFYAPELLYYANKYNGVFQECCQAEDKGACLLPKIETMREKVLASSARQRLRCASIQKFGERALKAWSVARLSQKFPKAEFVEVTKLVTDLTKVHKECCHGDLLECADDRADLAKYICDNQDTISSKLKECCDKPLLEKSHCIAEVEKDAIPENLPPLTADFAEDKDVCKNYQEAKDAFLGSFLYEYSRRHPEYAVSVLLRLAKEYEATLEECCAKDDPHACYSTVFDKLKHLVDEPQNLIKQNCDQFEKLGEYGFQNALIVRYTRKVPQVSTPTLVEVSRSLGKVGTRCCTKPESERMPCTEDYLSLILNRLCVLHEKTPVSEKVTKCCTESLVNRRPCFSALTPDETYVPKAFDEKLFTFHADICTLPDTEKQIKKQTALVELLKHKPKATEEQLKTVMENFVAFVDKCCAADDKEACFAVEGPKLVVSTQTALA

## Sc (III) Complex of 1,7-dioxa-4,10-diazacyclododecane-4,10-di(methyl(phenol)) [complex P1]
  Intensity (of the SDS-PAGE band assigned to BSA, relative to the reference band at t=24 h): 0.84
